Data: article PMC7317179 (The Korean Journal of Physiology & Pharmacology : …, 2020)

Target: T1, anoctamin-1 (hANO1, TMEM16A) (Homo sapiens, UniProt Q5XXA6)
T1 sequence (Q5XXA6 1-986): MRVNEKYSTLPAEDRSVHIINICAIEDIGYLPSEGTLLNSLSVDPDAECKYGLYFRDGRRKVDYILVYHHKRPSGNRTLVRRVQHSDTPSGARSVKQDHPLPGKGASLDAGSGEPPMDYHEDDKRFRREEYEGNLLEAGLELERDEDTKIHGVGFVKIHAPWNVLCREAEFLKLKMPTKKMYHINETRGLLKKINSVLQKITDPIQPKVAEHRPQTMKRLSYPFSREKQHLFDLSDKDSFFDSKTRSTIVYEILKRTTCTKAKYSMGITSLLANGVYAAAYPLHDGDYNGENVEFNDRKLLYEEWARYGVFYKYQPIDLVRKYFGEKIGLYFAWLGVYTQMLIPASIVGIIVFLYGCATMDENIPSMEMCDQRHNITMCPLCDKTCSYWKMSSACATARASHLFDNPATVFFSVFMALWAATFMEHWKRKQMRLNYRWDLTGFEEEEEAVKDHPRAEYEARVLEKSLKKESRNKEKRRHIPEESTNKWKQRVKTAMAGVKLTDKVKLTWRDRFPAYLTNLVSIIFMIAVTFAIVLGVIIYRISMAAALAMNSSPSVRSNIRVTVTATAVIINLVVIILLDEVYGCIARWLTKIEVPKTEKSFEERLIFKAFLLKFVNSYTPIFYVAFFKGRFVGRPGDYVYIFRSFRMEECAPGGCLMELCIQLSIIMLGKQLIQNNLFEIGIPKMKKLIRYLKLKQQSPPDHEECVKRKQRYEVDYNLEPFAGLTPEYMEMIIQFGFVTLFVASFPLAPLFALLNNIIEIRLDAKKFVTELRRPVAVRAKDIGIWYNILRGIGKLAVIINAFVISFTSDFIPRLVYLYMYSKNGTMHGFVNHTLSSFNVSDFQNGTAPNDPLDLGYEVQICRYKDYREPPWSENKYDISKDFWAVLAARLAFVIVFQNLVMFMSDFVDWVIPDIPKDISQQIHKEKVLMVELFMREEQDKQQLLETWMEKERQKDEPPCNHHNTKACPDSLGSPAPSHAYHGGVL
Test: whole-cell patch clamp, hANO1-HEK293T
Format: cell-based

Work on O=c1cc(-c2ccc(O)c(O)c2)oc2cc(O)cc(O)c12 [compound 5, luteolin] yielded an IC50 of 27.9 ± 1.61 µM.
